In paper PMC6778101 (Nature Communications, 2019):
Where two headings read alike, the source gives them in different places. Ends that are not written are not given here.

Tests used:
Type in all cases: cell-based, Escherichia coli
E. coli K-12 BW25113 = test: microbe, parasite or virus in culture
From the text: Unless otherwise indicated, Minimal Salt (MS) medium was used in all experiments, including the laboratory evolution experiments. In line with previous, methodologically relevant laboratory evolution studies, the physical conditions (including the medium) were the same during the course of laboratory evolution and all forthcoming assays on the resulting resistant lines (e.g. MIC measurements). We previously optimized this medium for studying AMPs (1 g L^−1 (NH4)2SO4, 3 g L^−1 KH2PO4 and 7 g L^−1 K2HPO4 supplemented with 0.1 mM MgSO4, 0.54 µg mL^−1 FeCl3, 1 µg mL^−1 thiamine hydrochloride, 0.2% Casamino acids and 0.2% glucose)[19]. This medium is highly controlled and provides a reproducible environment for experimental evolution experiments. All components were obtained from Sigma-Aldrich.
MICs were determined using a standard serial broth dilution technique. Briefly, 11-step serial dilutions were prepared in 96-well microtiter plates with three replicates per strain and antimicrobial compound. Each experiment was repeated at least twice. 5 × 10^5 cells/mL were inoculated into each well, and the plates were incubated at 30 °C in case of E. coli K-12 BW25113, and its antibiotic and AMP-adapted lines, or 37 °C in case of the other bacterial species. […] Cell growth was monitored by measuring the optical density (OD600 value, Biotek Synergy 2 microplate reader was used for this purpose). […] Relative MIC was calculated as follows: MICrelative = MICevolved/MICcontrol.

[1] = tested on: E. coli K-12 BW25113 carrying ASKA plasmids; test: microbe, parasite or virus in culture; details: MS medium + 10 µg mL−1 CHL + 500 µM IPTG, 5 × 10^5 cells, 16–18 h, 37 °C; for MIC: Escherichia coli
From the text: Bacterial gene amplification generates extensive genetic variation that can provide drug resistance[37],[38]. As gene amplification events tend to be genetically unstable and reduce bacterial fitness, they are transient in nature. Using the ASKA library, which comprises each E. coli ORF cloned into an expression vector[40], we have conducted a global survey to evaluate whether artificially amplified genes provide resistance to any of the 14 AMPs and 11 antibiotics tested. As chloramphenicol (CHL) was used as a selection marker for the ASKA plasmid, this antibiotic was not tested in this screen. E. coli K-12 BW25113 cells were transformed with the pooled plasmids of the ASKA library, and the genetically mixed populations were exposed to increasing levels of AMP or antibiotic stresses, respectively. In all cases, the employed AMP or antibiotic dosages were above the MIC of the wild type. For each drug, we identified the MIC provided in the pooled ASKA plasmid library, and compared it to the MIC of the wild-type strain carrying the empty ASKA plasmid.
The ASKA library (a complete set of E. coli K-12 ORF archive) includes every E. coli ORF cloned into an expression vector (pCA24N)[65]. Prior to screening, the ASKA plasmid collection was pooled and transformed into E. coli K-12 BW25113 strain[66]. The plasmid pool was created by pooling an equal aliquot of cells, each carrying different members of the ASKA library, followed by plasmid miniprep. Next, the plasmid pool was electroporated into E. coli K-12 BW25113 competent cells. […] For the MICs measurements 500 000 cells were inoculated in each well which represents ~100 times coverage of each library member. […] Prior to the measurements the cell population containing the pooled overexpression library or the control strain containing the empty vector were grown in three replicates in LB medium supplemented with 20 µg/mL CHL. As the culture reached high density (i.e., OD600 > 0.8), expression of the plasmid was induced by 50 µM IPTG for 1 h. Following induction, 5 × 10^5 bacterial cells were inoculated in three replicates into each well of the 96-well plate and incubated for 16–18 h at 37 °C. Following incubation the MIC values were determined by measuring optical densities in a plate reader (Biotek Synergy).

E.coli K-12 BW25113 = details: for MIC (freshly prepared AMP): plates inoculated immediately; for MIC (pre-incubated AMP): plates pre-incubated 72 hours before inoculation
Procedure: MICs were determined using a standard serial broth dilution technique. Briefly, 11-step serial dilutions were prepared in 96-well microtiter plates with three replicates per strain and antimicrobial compound. Each experiment was repeated at least twice. 5 × 10^5 cells/mL were inoculated into each well, and the plates were incubated at 30 °C in case of E. coli K-12 BW25113, and its antibiotic and AMP-adapted lines, or 37 °C in case of the other bacterial species. Plates were shaken at 300 r.p.m. during incubation for 24 and 18 h, respectively. Cell growth was monitored by measuring the optical density (OD600 value, Biotek Synergy 2 microplate reader was used for this purpose). […] Relative MIC was calculated as follows: MICrelative = MICevolved/MICcontrol.
Supplementary Table 7- Effect of incubation time on the minimum inhibitory concentration (MIC) of AMPs. We tested whether the prolonged incubation time can affect the MIC of AMPs. To test this, two sets of AMP containing MIC plates were prepared in parallel. The first set was immediately inoculated with E.coli K-12 BW25113, while the second set was pre-incubated 72 hours before inoculation with the […]
observed in the MIC between freshly prepared and pre-incubated plates. […]

[2] = tested on: antibiotic- and AMP-adapted E. coli K-12 BW25113 lines; test: High-throughput fitness measurement of adapted lines (area under growth curve, drug-free medium); details: adapted line APC1
From the text: We estimated fitness by measuring growth of these strains and the corresponding wild-type in antibiotic-free medium (“Methods”). […] As might be expected, fitness costs varied substantially across antibiotics and AMPs (Fig. 1b). […] This pattern is unlikely to reflect differences in the level of resistance between AMP and antibiotic strains, respectively. There is only a weak, marginally significant negative correlation between the level of resistance and fitness cost (Supplementary Fig. 1, Spearman’s rho = −0.24, P = 0.016 (N = 98)), and this correlation becomes non-significant after controlling for drug type (P = 0.6 and P = 0.39 for antibiotics (N = 60) and AMPs (N = 38) respectively, Spearman’s correlation).
Bacterial cell growth was assayed by continuously monitoring the optical density (OD600) of liquid cultures using 384-well microtiter plates containing MS medium, the same medium used during the laboratory evolution. Fitness was measured for a total of 60 antibiotic-adapted and the 38 AMP-adapted E. coli K-12 BW25113 lines (at least four lines per antibiotic or AMP). All measurements were performed twice (six technical replicates per experiment). Starter cultures were inoculated into 96-well plates containing MS medium and incubated for 20 h at 30 °C for E. coli K-12 BW25113 and its evolved lines. After this growth period, the OD600 of each culture was read and the starting cell number set to a final of 50,000 cells per well to a final volume of 60 µl. A total of 384-well plates were inoculated combining four different 96-well starter plates together: one plate having the unevolved wild-type control as a reference strain in all wells in order to estimate possible variation in growth within-plate measurement causing biases to the reading, and three plates containing the different set of antibiotic or AMP-adapted lines. Cell growth was monitored by measuring the optical density at 600 nm every 5 min (OD600 value, Biotek Synergy 2 microplate reader was used for this purpose). The integral data was calculated by the Biotek Gen5 Data Analysis Software between 1 and 24 h in case of E. coli K-12 BW25113 adapted lines. Because of possible influence of temperature equilibration in the first hour of measurement, this time period was excluded from the analysis.

[3] = starting wild-type strain of the evolution experiment, broth dilution, MS medium, 5 × 10^5 cells/mL, 30 °C, 24 h, MIC = OD600 < 0.05
[4] = time allowed for bacterial growth 48 hours
[5] = time allowed for bacterial growth 24 hours
[6] = time allowed for bacterial growth 72 hours
[7] = replicate 1 (first line of the sheet)

Compound | MIC (E. coli K-12 BW25113; [3]) [µg/mL] | MIC value of E. coli K-12 BW25113 carrying the empty plasmid of the ASKA library ([1]; Replicate 1) [µg/mL] | MIC value of E. coli K-12 BW25113 carrying the pooled plasmids of the ASKA library ([1]; Replicate 1) [µg/mL] | MIC value of E. coli K-12 BW25113 carrying the empty plasmid of the ASKA library ([1]; Replicate 2) [µg/mL] | MIC value of E. coli K-12 BW25113 carrying the pooled plasmids of the ASKA library ([1]; Replicate 2) [µg/mL] | MIC value of E. coli K-12 BW25113 carrying the empty plasmid of the ASKA library ([1]; Replicate 3) [µg/mL] | MIC value of E. coli K-12 BW25113 carrying the pooled plasmids of the ASKA library ([1]; Replicate 3) [µg/mL] | MIC (freshly prepared AMP) (E.coli K-12 BW25113; [4]) [µg/mL] | MIC (pre-incubated AMP) (E.coli K-12 BW25113; [5]) [µg/mL] | MIC (pre-incubated AMP) (E.coli K-12 BW25113; [4]) [µg/mL] | MIC (pre-incubated AMP) (E.coli K-12 BW25113; [6]) [µg/mL] | also measured
CC[C@H](C)[C@H](NC(=O)[C@H](CCCCN)NC(=O)[C@H](CCC(=O)O)NC(=O)[C@H](CCCCN)NC(=O)[C@H](CO)NC(=O)[C@H](CCCCN)NC(=O)[C@H](CCCNC(=N)N)NC(=O)[C@H](Cc1ccccc1)NC(=O)[C@H](Cc1ccccc1)NC(=O)[C@H](CC(=O)O)NC(=O)CNC(=O)[C@H](CC(C)C)NC(=O)[C@@H](N)CC(C)C)C(=O)NCC(=O)N[C@@H](CCCCN)C(=O)N[C@@H](CCC(=O)O)C(=O)N[C@@H](Cc1ccccc1)C(=O)N[C@@H](CCCCN)C(=O)N[C@@H](CCCNC(=N)N)C(=O)N[C@H](C(=O)N[C@H](C(=O)N[C@@H](CCC(N)=O)C(=O)N[C@@H](CCCNC(=N)N)C(=O)N[C@H](C(=O)N[C@@H](CCCCN)C(=O)N[C@@H](CC(=O)O)C(=O)N[C@@H](Cc1ccccc1)C(=O)N[C@@H](CC(C)C)C(=O)N[C@@H](CCCNC(=N)N)C(=O)N[C@@H](CC(N)=O)C(=O)N[C@@H](CC(C)C)C(=O)N[C@H](C(=O)N1CCC[C@H]1C(=O)N[C@@H](CCCNC(=N)N)C(=O)N[C@H](C(=O)N[C@@H](CCC(=O)O)C(=O)N[C@@H](CO)C(=O)O)[C@@H](C)O)C(C)C)[C@@H](C)CC)C(C)C)[C@@H](C)CC [LL37, cathelicidin antimicrobial peptide LL-37] | 100 | 14.45 | 14.45 | 12.04 | 17.34 | 14.45 | 14.45 | 17.4 | 17.4 | 17.4 | 17.4 | –
RFRPPIRRPPIRPPFYPPFRPPIRPPIFPPIRPPFRPPLGPFP [BAC5, Bactenecin 5] | 7 | 5.79 | 4.82 | 5.79 | 5.79 | 5.79 | 4.82 | 14.5 | 14.5 | 14.5 | 14.5 | MIC (freshly prepared AMP) (E.coli K-12 BW25113; [5]): 14.5 µg/mL; MIC (freshly prepared AMP) (E.coli K-12 BW25113; [6]): 14.5 µg/mL
CC1(C)S[C@@H]2[C@H](NC(=O)[C@H](N)c3ccccc3)C(=O)N2[C@H]1C(=O)O [APC, Ampicillin] | – | – | – | – | – | – | – | – | – | – | – | MIC (E. coli K-12 BW25113; Escherichia coli, BW25113, 24 h, read-out: MIC): 6.2 µg/mL; MIC ([1]; BW25113, Replicate 1, read-out: MIC value of E. coli K-12 BW25113 carrying the empty plasmid of the ASKA library): 4 µg/mL; MIC ([1]; BW25113, Replicate 1, read-out: MIC value of E. coli K-12 BW25113 carrying the pooled plasmids of the ASKA library): 256 µg/mL; MIC ([1]; BW25113, Replicate 2, read-out: MIC value of E. coli K-12 BW25113 carrying the empty plasmid of the ASKA library): 4 µg/mL; MIC ([1]; BW25113, Replicate 2, read-out: MIC value of E. coli K-12 BW25113 carrying the pooled plasmids of the ASKA library): 256 µg/mL; MIC ([1]; BW25113, Replicate 3, read-out: MIC value of E. coli K-12 BW25113 carrying the empty plasmid of the ASKA library): 4 µg/mL; MIC ([1]; BW25113, Replicate 3, read-out: MIC value of E. coli K-12 BW25113 carrying the pooled plasmids of the ASKA library): 256 µg/mL; integral (measured integral data) [2, 7]: 10905.8; normalized integral (integral normalized to wild-type) [2, 7]: 0.2843; integral (measured integral data) ([2]; replicate 2): 12217.4; normalized integral (integral normalized to wild-type) ([2]; replicate 2): 0.3185; integral (measured integral data) ([2]; replicate 3): 11200; normalized integral (integral normalized to wild-type) ([2]; replicate 3): 0.292; integral (measured integral data) ([2]; replicate 4): 11338.5; normalized integral (integral normalized to wild-type) ([2]; replicate 4): 0.2956; integral (measured integral data) ([2]; replicate 5): 13182.1; normalized integral (integral normalized to wild-type) ([2]; replicate 5): 0.3436
